Source: PubChem BioAssay (NCI)
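Compound exposure: 48 hours, 5 concentrations, 96-well plates. TGI is the concentration that stops growth completely.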

Legend:
Assay in all cases: NCI anticancer screen, dose series, 48 h
786-0 renal = tested on: 786-0 renal
A549 NSCLC = tested on: A549 NSCLC
ACHN renal = tested on: ACHN renal
CCRF-CEM leukemia = tested on: CCRF-CEM leukemia
COLO 205 colon = tested on: COLO 205 colon
DLD-1 colon = tested on: DLD-1 colon
DMS 114 small cell lung = tested on: DMS 114 small cell lung
DMS 273 small cell lung = tested on: DMS 273 small cell lung
EKVX NSCLC = tested on: EKVX NSCLC
HCC-2998 colon = tested on: HCC-2998 colon
HCT-116 colon = tested on: HCT-116 colon
HCT-15 colon = tested on: HCT-15 colon
HL-60(TB) leukemia = tested on: HL-60(TB) leukemia
HOP-18 NSCLC = tested on: HOP-18 NSCLC
HOP-62 NSCLC = tested on: HOP-62 NSCLC
HOP-92 NSCLC = tested on: HOP-92 NSCLC
HT29 colon = tested on: HT29 colon
IGROV1 ovarian = tested on: IGROV1 ovarian
K-562 leukemia = tested on: K-562 leukemia
KM12 colon = tested on: KM12 colon
KM20L2 colon = tested on: KM20L2 colon
LXFL 529 NSCLC = tested on: LXFL 529 NSCLC
M14 melanoma = tested on: M14 melanoma
M19-MEL melanoma = tested on: M19-MEL melanoma
MALME-3M melanoma = tested on: MALME-3M melanoma
MOLT-4 leukemia = tested on: MOLT-4 leukemia
NCI-H226 lung = tested on: NCI-H226 lung
NCI-H23 lung = tested on: NCI-H23 lung
NCI-H460 lung = tested on: NCI-H460 lung
NCI-H522 lung = tested on: NCI-H522 lung
OVCAR-3 ovarian = tested on: OVCAR-3 ovarian
OVCAR-4 ovarian = tested on: OVCAR-4 ovarian
OVCAR-5 ovarian = tested on: OVCAR-5 ovarian
OVCAR-8 ovarian = tested on: OVCAR-8 ovarian
RPMI-8226 leukemia = tested on: RPMI-8226 leukemia
RXF 393 renal = tested on: RXF 393 renal
RXF-631 renal = tested on: RXF-631 renal
SF-268 CNS = tested on: SF-268 CNS
SF-295 CNS = tested on: SF-295 CNS
SF-539 CNS = tested on: SF-539 CNS
SK-MEL-2 melanoma = tested on: SK-MEL-2 melanoma
SK-MEL-28 melanoma = tested on: SK-MEL-28 melanoma
SK-MEL-5 melanoma = tested on: SK-MEL-5 melanoma
SK-OV-3 ovarian = tested on: SK-OV-3 ovarian
SN12C renal = tested on: SN12C renal
SNB-19 CNS = tested on: SNB-19 CNS
SNB-75 CNS = tested on: SNB-75 CNS
SNB-78 CNS = tested on: SNB-78 CNS
SR leukemia = tested on: SR leukemia
SW-620 colon = tested on: SW-620 colon
U251 CNS = tested on: U251 CNS
UACC-257 melanoma = tested on: UACC-257 melanoma
UACC-62 melanoma = tested on: UACC-62 melanoma
UO-31 renal = tested on: UO-31 renal
A498 renal = tested on: A498 renal
CAKI-1 renal = tested on: CAKI-1 renal
LOX IMVI melanoma = tested on: LOX IMVI melanoma
TK-10 renal = tested on: TK-10 renal
XF 498 CNS = tested on: XF 498 CNS

Measured: TGI

O=C1c2ccccc2C(=O)N1CCn1nc(-c2ccccc2)cc(-c2ccccc2)c1=O
36.9 µM: RPMI-8226 leukemia
69.8 µM: SR leukemia
39 µM: HL-60(TB) leukemia
96.8 µM: HOP-92 NSCLC
not listed: A498 renal | CAKI-1 renal | LOX IMVI melanoma | TK-10 renal | XF 498 CNS
> 100 µM: all other assays above

COc1ccc(N(CC(=O)O)S(=O)(=O)c2ccccc2)cc1
not listed: DMS 114 small cell lung | HCC-2998 colon | HCT-116 colon | HOP-62 NSCLC | SF-268 CNS | SK-MEL-28 melanoma | SNB-75 CNS | SNB-78 CNS | SR leukemia
> 100 µM: all other assays above
